The target in one data set is EGFR tyrosine kinase (Homo sapiens, UniProt P00533). Put plainly: EGFR tyrosine kinase inhibitory activity (ELISA). The format is biochemical. Conditions: poly(Glu, Tyr)4:1 substrate, 10 μM ATP, 60 min at 37 °C, read-out: Anti-EGFR IC50 (µM) ± SD.
In another data set the target is T1, CDC25B (Homo sapiens, UniProt P30305).
T1 sequence (P30305 1-580): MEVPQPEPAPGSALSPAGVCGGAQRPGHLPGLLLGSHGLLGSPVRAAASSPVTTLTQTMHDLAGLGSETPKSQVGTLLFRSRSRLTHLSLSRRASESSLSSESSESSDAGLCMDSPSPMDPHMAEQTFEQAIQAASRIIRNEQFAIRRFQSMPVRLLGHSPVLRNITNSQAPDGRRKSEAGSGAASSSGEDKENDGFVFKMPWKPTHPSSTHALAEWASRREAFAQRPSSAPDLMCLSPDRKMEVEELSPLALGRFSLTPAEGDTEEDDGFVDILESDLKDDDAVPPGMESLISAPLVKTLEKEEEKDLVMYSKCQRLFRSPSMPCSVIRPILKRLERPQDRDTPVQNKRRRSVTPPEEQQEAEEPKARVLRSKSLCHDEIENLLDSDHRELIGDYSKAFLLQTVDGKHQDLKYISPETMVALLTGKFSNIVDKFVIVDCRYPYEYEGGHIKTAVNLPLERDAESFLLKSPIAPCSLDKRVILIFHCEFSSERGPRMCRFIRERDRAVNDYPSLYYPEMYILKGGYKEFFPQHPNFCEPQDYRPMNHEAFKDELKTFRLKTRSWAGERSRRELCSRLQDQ
Put plainly: CDC25B enzymatic activity assay (OMFP dephosphorylation). It counts as biochemical. The conditions noted are these: OMFP substrate 10 μM, 100 nM CDC25B, 30 °C, pH 8.0; read-out: Anti-CDC25B IC50 (µM) ± SD. The method, then: The enzymatic activity of the CDC25B was determined at 30 °C by monitoring the dephosphorylation of 3-O-methylfluorescein phosphate (OMFP), which was used as a substrate for the CDC25B and can be monitored at a 535 nm emission wavelength and 485 nm excitation wavelength in the EnVisionmultilabel plate reader. The assay was measured in a 100 μL mixture system containing 50 mM Tris-HCl, pH 8.0, 50 mM NaCl, 10 μM OMFP, 100 nM CDC25B, 1 mM dithiothreitol (DTT), 1 mM ethylene diamine tetraacetic acid (EDTA), 1% glycerin, and 2 mg/L compound. The initial rate of the dephosphorylation was determined using the early linear region of the enzymatic reaction kinetic curve. DMSO and Na3VO4 were used as negative and positive controls, respectively.

Data set [1] deals with murine leukemia L-1210 cells. On the set-up: method as in ref 5, ref 6. The conditions noted are these: cited from earlier work.
The subject of data set [2] is mitochondrial respiration. Also on record: method as in PMID 7122988. Conditions: cited from earlier work.
For data set [3], the system named is human breast cancer (MCF-7) cells. On the set-up: method as in ref 8, ref 9. Conditions: cited from earlier work.
Data set [4] relates to human non-small cell lung carcinoma (NCL-H460) cells. Also on record: method as in ref 8, ref 9. The conditions noted are these: cited from earlier work.
Data set [5] deals with human cervical cancer (Hela) cells. Also on record: method as in ref 8, ref 9. Conditions: cited from earlier work.

The values below come from PMC6780165, “Verruculosins A–B, New Oligophenalenone Dimers from the Soft Coral-Derived Fungus Talaromyces verruculosus” (Marine Drugs, 2019).

In general, IC50 refers to the point on the concentration scale where inhibition reaches its midpoint.

EGFR tyrosine kinase, sequence (P00533 25-1210): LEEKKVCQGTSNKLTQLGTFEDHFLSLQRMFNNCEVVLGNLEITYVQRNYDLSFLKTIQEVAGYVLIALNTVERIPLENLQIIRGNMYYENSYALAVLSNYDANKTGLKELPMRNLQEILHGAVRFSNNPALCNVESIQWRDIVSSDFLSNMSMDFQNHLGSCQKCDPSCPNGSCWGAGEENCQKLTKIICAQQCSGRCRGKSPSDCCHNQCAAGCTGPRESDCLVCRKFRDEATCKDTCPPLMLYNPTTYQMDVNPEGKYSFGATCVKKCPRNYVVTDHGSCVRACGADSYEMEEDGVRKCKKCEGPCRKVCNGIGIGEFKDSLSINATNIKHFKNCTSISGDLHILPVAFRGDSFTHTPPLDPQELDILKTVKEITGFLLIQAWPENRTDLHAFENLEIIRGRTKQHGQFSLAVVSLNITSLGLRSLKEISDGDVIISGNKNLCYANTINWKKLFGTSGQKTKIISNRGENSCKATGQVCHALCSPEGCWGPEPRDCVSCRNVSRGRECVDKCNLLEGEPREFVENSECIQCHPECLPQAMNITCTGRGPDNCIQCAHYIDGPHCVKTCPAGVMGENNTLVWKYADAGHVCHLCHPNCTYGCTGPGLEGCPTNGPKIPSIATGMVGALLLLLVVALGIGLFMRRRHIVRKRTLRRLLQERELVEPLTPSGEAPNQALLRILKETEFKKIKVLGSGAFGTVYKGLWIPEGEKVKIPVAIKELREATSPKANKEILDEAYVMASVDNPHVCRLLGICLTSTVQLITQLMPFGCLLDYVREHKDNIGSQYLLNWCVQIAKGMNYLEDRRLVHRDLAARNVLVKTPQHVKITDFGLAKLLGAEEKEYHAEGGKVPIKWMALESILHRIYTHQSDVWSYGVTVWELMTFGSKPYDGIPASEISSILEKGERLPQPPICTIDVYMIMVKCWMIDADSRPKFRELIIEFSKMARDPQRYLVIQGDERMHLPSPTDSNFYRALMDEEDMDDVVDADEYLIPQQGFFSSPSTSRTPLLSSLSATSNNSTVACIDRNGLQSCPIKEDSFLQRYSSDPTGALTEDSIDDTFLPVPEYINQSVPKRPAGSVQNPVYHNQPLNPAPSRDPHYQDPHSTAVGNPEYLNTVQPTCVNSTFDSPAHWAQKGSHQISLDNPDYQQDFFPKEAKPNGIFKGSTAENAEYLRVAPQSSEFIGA
Method for EGFR tyrosine kinase: The EGFR tyrosine kinase inhibitory activity was tested using enzyme-linked immunosorbent assay (ELISA). The compounds were dissolved in dimethyl sulfoxide (DMSO) buffer solution and were then distributed to a 96-well plate pre-coated with poly(Glu, Tyr)4:1 as a substrate. Each well was treated with 50 μL of 10 μM ATP solution diluted with reaction buffer and the reaction was started by the addition of EGFR tyrosine kinase. After 60 min of incubation at 37 °C, the plate was washed three times with phosphate buffered saline containing 0.1% Tween 20 (PBST). Next, antiphosphotyrosine (PY99) antibody 100 μL was added. After incubation for 30 min at 37 °C, the plate was washed three times and goat anti-mouse IgG horseradish peroxidase was added. The plate was reincubated at 37 °C for 30 min and washed as before. Lastly, 100 μL of color development solution was added and the plate was incubated at room temperature until color emerged. The reaction was terminated by adding 50 μL of 2 M H2SO4, and the absorbance was measured on the Molecular Devices SpectraMax 190 microplatereader at 490 nm [20]. The known EGFR inhibitor, afatibib, was utilized as a positive control, and 0.1% (v/v) DMSO was used as a negative control.

Consider `COC12c3c(C)cc(O)c4c3C3=C(OC(C)(O)CC3OC4=O)C1C13COC(=O)c4c(O)cc(C)c(c41)C(=O)C2C3OC(C)=O` (centres unmarked) [Compound 1, verruculosin A], for which the 50% inhibitory concentration (IC50) at EGFR tyrosine kinase is 0.92 ± 0.25 µM; at CDC25B, 0.38 ± 0.03 µM.

`COC(=O)CC1OC(=O)c2c(O)cc(C)c3c2C1=C(O)C1C24COC(=O)c5c(O)cc(C)c(c52)C(=O)C(C4OC(C)=O)C31OC` (centres unmarked) [Compound 2, verruculosin B]: the IC50 at EGFR tyrosine kinase worked out at 1.22 ± 0.53 µM.

As to `COC1OC(=O)c2c(O)cc(C)c3c4c(c(O)c1c23)C12COC(=O)c3c(O)cc(C)c(c31)C(=O)C4C2OC(C)=O` (centres unmarked) [Compound 3, bacillisporin F], the IC50 on EGFR tyrosine kinase was 4.41 ± 2.32 µM; on CDC25B, 0.4 ± 0.02 µM.

Take `COC12c3c(C)cc(O)c4c(=O)occ(c34)C(=O)C1C13COC(=O)c4c(O)cc(C)c(c41)C(=O)C2C3OC(C)=O` (centres unmarked) [Compound 4, duclauxin]: the IC50 is 0.95 ± 0.64 µM at EGFR tyrosine kinase and 0.75 ± 0.18 µM on CDC25B. The “activity against murine leukemia L-1210 cells (in words)” value in data set [1] was “highly active”. The “inhibitory effects on mitochondrial respiration (in words)” value in data set [2] is on record as “strong inhibitory effects”.

For `CC(=O)OC1C2C(=O)c3c(C)cc(O)c4c3C1(COC4=O)c1c(O)c3c4c(c(O)cc(C)c4c12)C(=O)OC3=O` (centres unmarked) [Compound 5, xenoclauxin], the concentration for half-maximal inhibition (IC50) was determined as 0.24 ± 0.17 µM on EGFR tyrosine kinase and 0.26 ± 0.06 µM on CDC25B.

As to `[Na+].[Na+].[Na+].[O]=[V]([O-])([O-])[O-]` [Na3VO4, reference compound], the half-inhibitory concentration (IC50) on CDC25B was 0.52 ± 0.02 µM.

For the compound Bascillosporin A, the “cytotoxicity against MCF-7 cells (in words)” value in data set [3] is recorded as “high cytotoxicity”. The “cytotoxicity against NCL-H460 cells (in words)” value in data set [4] was “high cytotoxicity”.

Take Bascillosporin B [Bascillosporins B]: the “cytotoxicity against MCF-7 cells (in words)” value in data set [3] is reported as “moderately active”. In addition, the “cytotoxicity against NCL-H460 cells (in words)” value in data set [4] is recorded as “moderately active”. Moreover, the “activity against Hela cells (in words)” value in data set [5] is reported as “moderately active”.

In the case of Bascillosporin C, the “cytotoxicity against MCF-7 cells (in words)” value in data set [3] is recorded as “moderately active”. In addition, the “cytotoxicity against NCL-H460 cells (in words)” value in data set [4] is “moderately active”. In addition, in data set [5], the “activity against Hela cells (in words)” value was “moderately active”.

Take Bascillosporin H: in data set [3], the “cytotoxicity against MCF-7 cells (in words)” value was “moderately active”. Also, the “cytotoxicity against NCL-H460 cells (in words)” value in data set [4] was “moderately active”. Further, the “activity against Hela cells (in words)” value in data set [5] is “moderately active”.
